# Source: article PMC6706398 (Scientific Reports, 2019)
# Where “and” joins values, the source holds several entries; their conditions need not be identical. Equal values may be shown once. Read-outs that look alike come from different tables or passages of the source.
# Key:
# [1] = system: CTB binding to jejunal epithelial cells; conditions: cited from earlier work
# [2] = biological target: wild-type CT holotoxin (cCT) (Vibrio cholerae, UniProt Q57193); experiment: biochemical; type: binding
# CT [3] = conditions: cited from earlier work
# [4] = system: CTB binding in cell culture (intestinal epithelial cells); conditions: cited from earlier work
# CT [5] = conditions: cited from earlier work; remark: listed apart in the source
smiles,measurement,setting,value
CC(=O)N[C@@H]1[C@@H](O[C@@H]2O[C@@H](C)[C@@H](O)[C@@H](O)[C@@H]2O)[C@H](O[C@@H]2O[C@H](CO)[C@H](O)[C@H](O)[C@H]2O)[C@@H](CO)O[C@H]1O [Le^x triaose],blocking of CTB binding to jejunal epithelial cells,[1],can be blocked
same,Kd,[2]; Kd,8.1 mM and 8 mM
CC(=O)N[C@H]1[C@H](O[C@@H]2[C@@H](O)[C@H](O)O[C@H](CO)[C@@H]2O)O[C@H](CO)[C@@H](O[C@@H]2O[C@H](CO)[C@H](O)[C@H](O)[C@H]2O)[C@@H]1O[C@@H]1O[C@@H](C)[C@@H](O)[C@@H](O)[C@@H]1O [Le^x tetraose],Kd,[2]; Kd,7.7 ± 0.5 mM
CC(=O)N[C@H]1[C@H](O[C@@H]2[C@H](O[C@]3(C(=O)O)C[C@H](O)[C@@H](NC(C)=O)[C@H]([C@H](O)[C@H](O)CO)O3)[C@@H](O)[C@H](O[C@H]3[C@H](O)[C@@H](O)[C@H](O)O[C@@H]3CO)O[C@@H]2CO)O[C@H](CO)[C@H](O)[C@@H]1O[C@@H]1O[C@H](CO)[C@H](O)[C@H](O)[C@H]1O[C@@H]1O[C@@H](C)[C@@H](O)[C@@H](O)[C@@H]1O [Fucosyl-GM1],binding to CT relative to GM1,CT [3],almost as strongly as GM1
C[C@H](O)[C@@H](O)[C@@H](O)[C@H](O)C=O [L-fucose],blocking of CTB binding in cell culture,[4],block CTB binding
CC(=O)N[C@H]1[C@H](O[C@@H]2[C@H](O[C@]3(C(=O)O)C[C@H](O)[C@@H](NC(C)=O)[C@H]([C@H](O)[C@H](O)CO)O3)[C@@H](O)[C@H](O[C@H]3[C@H](O)[C@@H](O)[C@H](O)O[C@@H]3CO)O[C@@H]2CO)O[C@H](CO)[C@H](O)[C@@H]1O[C@@H]1O[C@H](CO)[C@H](O)[C@H](O)[C@H]1O[C@@H]1O[C@@H](C)[C@@H](O)[C@@H](O)[C@@H]1O [GM1os],Kd,[2],5.77e-05 ± 3e-07 mM
same,Kd,CT [5],43 nM
